Laboratory results: publication PMC5291402 (The Plant Pathology Journal, 2017)
Converted amounts (≈) assume the structure as drawn.

Legend:
[1] = tested on: Xanthomonas citri subsp. citri 19-18 (XscW1), WT; test: Streptomycin MIC/MBC of the strains used; format: cell-based
[2] = tested on: Xanthomonas citri subsp. citri 10-5 (XscW2), WT; test: Streptomycin MIC/MBC of the strains used; format: cell-based
[3] = tested on: Xanthomonas citri subsp. citri 8-4 (XcsM5), rpsL41 (K42R in S12); format: cell-based
[4] = tested on: Xanthomonas citri subsp. citri 57-2 (XcsM6), strB located in Tn5393; test: Streptomycin MIC/MBC of the strains used; format: cell-based
[5] = tested on: Xanthomonas citri subsp. citri 27-13 (XcsM8), rpsL41 & strB double mutant; format: cell-based
wild type strains of Xcc = test: Streptomycin MIC, wild type strains; format: cell-based, Xanthomonas citri subsp. citri; settings: Xanthomonas citri, read-out: MICs of wild type strains of Xcc
wild type strain XccW2 = format: in vivo, Xanthomonas citri subsp. citri
SR strain XccM8 = format: in vivo, Xanthomonas citri subsp. citri; settings: 50 μg/ml or 100 μg/ml, SR mutant XccM8, citrus leaves

## [H]/N=C(/N)N[C@H]1[C@H](O)[C@@H](O)[C@H](O[C@@H]2O[C@@H](C)[C@](O)(C=O)[C@H]2O[C@@H]2O[C@@H](CO)[C@H](O)[C@@H](O)[C@@H]2NC)[C@@H](N/C(N)=N\[H])[C@@H]1O [Streptomycin]
[1]
  MIC: 1 µg/mL
[2]
  MIC: 2 µg/mL
[3]
  MIC: 6,000 μg/ml
[4]
  MBC: 3670 µg/mL
  MIC: 3330 µg/mL
[5]
  MIC: 3,000 μg/ml
Wild type strains of Xcc
  MIC: 1 to 2 µg/mL (≈ 1.72 to 3.44 µM)
Wild type strain XccW2; 50 μg/ml, wild type Xcc, citrus leaves (data not shown)
  delay of the first pustule formation: about 1 day
Wild type strain XccW2; 100 μg/ml, co-infiltrated with wild type Xcc into citrus leaves
  days to form the first yellowish halo around the pustule (index 2): 10 days
Wild type strain XccW2; wild type Xcc, citrus leaves, monitored 17 days after inoculation
  suppression of symptom development: suppressed up to 17 days
SR strain XccM8
  suppression of disease progress: did not suppress the disease progress
